Experimental data published in patent US20050233470A1, “Methods and compound mixtures for determining protein activity using nmr spectroscopy” (priority 2002, published 2005).

Conditions: rat, in vivo
Procedure: Urine samples were collected immediately before administration and then at 1 h and 2.5 h after administration. […] Blood samples were collected immediately before administration and then at 1, 2 and 3 h after administration. After collection, blood samples were spun down at 2000 rpm for 10 min. and the plasma was collected. Both, plasma and urine samples were frozen at −20° C.
Aliquots of the stock solution ([…]) were mixed with 40 μl biofluid (urine or blood plasma) to give a 15 mM trityl radical solution. These solutions were dispensed as droplets into liquid nitrogen to provide the material as vitrified pellets suitable for hyperpolarisation. The solid samples were placed in turn within the DNP magnet and hyperpolarised overnight. The samples were dissolved by injection of a mixture of methanol and acetic acid (100:1). The dissolved samples were quickly manually transferred (approx. 4 s transfer time) to a high-resolution magnet of 9.4 T and single acquisition ^13C-1D-NMR-spectra were acquired.
Quantification of the unknown amount of probe compound/metabolites in the biofluid samples was based on these enhancements and the known amount of probe compound/metabolite used to generate them. […]

| SMILES | Signals present in NMR spectrum of urine sample |
| --- | --- |
| N=C(N)N1Cc2ccccc2C(O)C1 (centres unmarked) [4-OH-Debrisoquine, 4-hydroxy-debrisoquine] | present |
| N=[13C](N)N1CCc2ccccc2C1 [Debrisoquine] | present |
